Test system: 3',3'-cGAMP riboswitch (Gs1761 aptamer, A2G/U72C/C73U) (RNA, riboswitch) GGUACACGACAAUACUAAACCAUCCGCGAGGAUGGGGCGGAAAGCCUAAGGGUCUCCCUGAGACAGCCGGGCUGCCGAAAUAUC
Assay: ITC
Conditions: 35 °C; one set of sites; buffer in supplement

| Kd [µM] | Compound |
| --- | --- |
| 0.07 | Nc1nc2c(ncn2[C@@H]2O[C@@H]3COP(=O)(O)O[C@H]4[C@@H](O)[C@H](n5cnc6c(N)ncnc65)O[C@@H]4COP(=O)(O)O[C@H]3[C@H]2O)c(=O)[nH]1 |
| 0.93 | Nc1nc2c(ncn2[C@@H]2O[C@@H]3COP(=O)(O)O[C@H]4[C@@H](O)[C@H](n5cnc6c(=O)[nH]c(N)nc65)O[C@@H]4COP(=O)(O)O[C@H]3[C@H]2O)c(=O)[nH]1 |
